Laboratory results as given in PubChem BioAssay (NCI).
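Abbreviation: GI50, concentration required for 50% inhibition of growth. The concentration for full growth arrest is given as TGI.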

Experiments:
Assay in all cases: DTP human tumour cell line panel, 384-well format
ACHN renal = tested on: ACHN renal
HOP-92 NSCLC = tested on: HOP-92 NSCLC
HS 578T breast = tested on: HS 578T breast
K-562 leukemia = tested on: K-562 leukemia
LOX IMVI melanoma = tested on: LOX IMVI melanoma
M14 melanoma = tested on: M14 melanoma
MDA-MB-231 breast = tested on: MDA-MB-231 breast
MDA-MB-468 breast = tested on: MDA-MB-468 breast
OVCAR-8 ovarian = tested on: OVCAR-8 ovarian
PC-3 prostate = tested on: PC-3 prostate
RXF 393 renal = tested on: RXF 393 renal
SNB-75 CNS = tested on: SNB-75 CNS
SW-620 colon = tested on: SW-620 colon

Question: Which GI50 (ACHN renal) does the source give for O=C1CC[C@H](N2Cc3c(OCc4ccc(CN5CCOCC5)cc4)cccc3C2=O)C(=O)N1 here?
Answer: > 100 µM

Question: And the TGI (ACHN renal)?
Answer: > 100 µM

Question: What about the GI50 (HOP-92 NSCLC) of the same molecule?
Answer: > 100 µM

Question: What about the TGI (HOP-92 NSCLC) of the same molecule?
Answer: > 100 µM

Question: And the GI50 (HS 578T breast)?
Answer: > 100 µM

Question: And the TGI (HS 578T breast)?
Answer: > 100 µM

Question: What about the GI50 (K-562 leukemia) of the same molecule?
Answer: > 100 µM

Question: And the TGI (K-562 leukemia)?
Answer: > 100 µM

Question: What about the GI50 (LOX IMVI melanoma) of the same molecule?
Answer: > 100 µM

Question: And the TGI (LOX IMVI melanoma)?
Answer: > 100 µM

Question: What about the GI50 (M14 melanoma) of the same molecule?
Answer: > 100 µM

Question: And the TGI (M14 melanoma)?
Answer: > 100 µM

Question: And the GI50 (MDA-MB-231 breast)?
Answer: > 100 µM

Question: What about the TGI (MDA-MB-231 breast) of the same molecule?
Answer: > 100 µM

Question: And the GI50 (MDA-MB-468 breast)?
Answer: > 100 µM

Question: What about the TGI (MDA-MB-468 breast) of the same molecule?
Answer: > 100 µM

Question: What about the GI50 (OVCAR-8 ovarian) of the same molecule?
Answer: > 100 µM

Question: What about the TGI (OVCAR-8 ovarian) of the same molecule?
Answer: > 100 µM

Question: And the GI50 (PC-3 prostate)?
Answer: > 100 µM

Question: What about the TGI (PC-3 prostate) of the same molecule?
Answer: > 100 µM

Question: And the GI50 (RXF 393 renal)?
Answer: > 100 µM

Question: And the TGI (RXF 393 renal)?
Answer: > 100 µM

Question: And the GI50 (SNB-75 CNS)?
Answer: > 100 µM

Question: What about the TGI (SNB-75 CNS) of the same molecule?
Answer: > 100 µM

Question: And the GI50 (SW-620 colon)?
Answer: > 100 µM

Question: What about the TGI (SW-620 colon) of the same molecule?
Answer: > 100 µM
